{
  "source": "patent US7109240B2",
  "about": "“Non-hazardous pest control” (Ecosmart Technologies, Inc., priority 1993, dated 2006)",
  "key": {"[1]": {"system": "adult male German cockroaches", "assay": "Control test: knockdown of cockroaches continuously confined to deposits of the solid dust components", "format": "in vivo, Blattella, germanica", "conditions": "continuously confined to dust deposit; 76° F., 55% relative humidity", "procedure": "(§1) Continuous exposure tests.—The intrinsic insecticidal activity of the insecticide dust against B. germanica was determined by exposing cockroaches to fresh and aged deposits of the dust. Replicated groups of three to ten adult cockroaches from culture were confined to deposits of the dust, and its speed of action in terms of knockdown (KD) and paralysis was determined. Adult male cockroaches from culture were placed directly onto fairly heavy deposits of dust (1 to 1.2 cc) spread evenly on filter paper in covered 9-cm-diameter petri dishes. The time for irreversible KD to occur (KT) was determined from periodic, irregular observation. The insects were considered KD when they were on their back, or could be turned over, and could not right themselves within at least two minutes. […] Comparison of KD activity was made with some commercial dust formulations including a non-fluorinated silica aerogel (SG-68), Drione™ (a fluorinated silica aerogel+pyrethrins), and a commercial diatomaceous earth (Celite™) applied and tested in the same manner.\nA control test was conducted using only the solid components of the embodiment."}, "[2]": {"system": "German cockroaches", "assay": "Knockdown of cockroaches continuously confined to calcium carbonate + 5% neurally effective substance", "format": "in vivo, Blattella, germanica", "conditions": "for KT50 / KT90 / KT90, Hours: 5% (wt/wt) ingredient in calcium carbonate, or dust alone, 1.2 cc, 78 ± 4° F., 55 ± 6% rh; for insecticidal activity (in words): 5% (wt/wt) in calcium carbonate, or dust alone", "procedure": "as §1\n(§2) The beads were screened out of the resultant mix. Exactly 1.2 cc of dust or dust was spread onto Whatman filter paper in 9-cm-diam petri dishes and the knockdown (KD) of cockroaches confined to the dust mix was determined by periodically observing KD."}, "[3]": {"system": "German cockroaches", "assay": "Phenol vs. terpineol in calcium carbonate: knockdown of cockroaches", "format": "in vivo, Blattella, germanica", "procedure": "as §2\nA further test was conducted to compare the effectiveness of phenol vs. terpineol as a neurally effective substance."}, "[4]": {"system": "German cockroaches", "conditions": "choice box; repellency measure", "procedure": "Choice box tests.—The activity and repellency of the present insecticide dust in a choice test was determined with standard two-compartment choice boxes.\nChoice boxes are 30.5 cm square, 10 cm tall wooden boxes, with a tempered masonite floor. A vertical partition panel separates the box into two equal-sized compartments. A 1.3 cm hole at the top center of the partition panel allows cockroaches to move from one compartment to the other. Transparent sheet plexiglass (0.3 cm thick) taped to the top retains cockroaches in the box and allows observation of live and dead in each compartment. A piece of masonite keeps one compartment dark (dark compartment). […]\nFive boxes were used for each treatment and the untreated control. […] Cockroaches prefer to aggregate in the dark, and they will normally readily move from the light compartment to the dark compartment of untreated choice boxes within a day or two. […] The number dead and alive in each compartment of each box was recorded every few days. […]\nThe mortality produced in choice boxes, and the position of cockroaches in relation to the treatment, provides a measure of the likely ultimate efficacy of a treatment when used under actual field conditions. […] On the other hand, slow-acting insecticides such as boric acid are effective in choice box tests because cockroaches readily walk on those deposits and are eventually killed by them."}, "[5]": {"conditions": "0.32 % (wt/wt) in calcium carbonate"}, "[6]": {"conditions": "0.63 % (wt/wt) in calcium carbonate"}, "[7]": {"conditions": "1.25 % (wt/wt) in calcium carbonate"}, "[8]": {"conditions": "2.5 % (wt/wt) in calcium carbonate"}, "[9]": {"conditions": "5.0 % (wt/wt) in calcium carbonate"}},
  "data": [
    {"compound": "O=C([O-])O.[Na+]", "note": "[Sodium bicarbonate (NaHCO3), Sodium bicarbonate]", "values": [
      {"measurement": "KT50", "setting": "[1]", "result": 16.5, "unit": "h"},
      {"measurement": "KT90", "setting": "[1]", "result": 20.9, "unit": "h"},
      {"measurement": "KT50", "setting": "[2]", "result": 9.7, "unit": "h"},
      {"measurement": "KT90", "setting": "[2]", "result": 16.0, "unit": "h"}
    ]},
    {"compound": "Oc1ccccc1", "note": "[Phenol]", "values": [
      {"measurement": "KT-50", "setting": "[3]; [5]", "result": 16.5, "unit": "h"},
      {"measurement": "KT-90", "setting": "[3]; [5]", "result": 24.0, "unit": "h"},
      {"measurement": "KT-50", "setting": "[3]; [6]", "result": 7.5, "unit": "h"},
      {"measurement": "KT-90", "setting": "[3]; [6]", "result": 20.3, "unit": "h"},
      {"measurement": "KT-50", "setting": "[3]; [7]", "result": 0.4, "unit": "h"},
      {"measurement": "KT-90", "setting": "[3]; [7]", "result": 1.5, "unit": "h"},
      {"measurement": "KT-50", "setting": "[3]; [8]", "result": 0.2, "unit": "h"},
      {"measurement": "KT-90", "setting": "[3]; [8]", "result": 0.4, "unit": "h"},
      {"measurement": "KT-50", "setting": "[3]; [9]", "result": "<0.1", "unit": "h"},
      {"measurement": "KT-90", "setting": "[3]; [9]", "result": 0.1, "unit": "h"},
      {"measurement": "insecticidal activity (in words)", "setting": "[3]; in CaCO3, every rate tested", "result": "more insecticidal than terpineol"}
    ]},
    {"compound": "CCOC(=O)c1ccccc1C(=O)OCC", "note": "[Diethyl phthalate]", "values": [
      {"measurement": "insecticidal activity (in words)", "setting": "[2]", "result": "not insecticidal"}
    ]},
    {"compound": "O=C([O-])[O-].[Ca+2]", "note": "[Calcium carbonate (CaCO3), Calcium carbonate]", "values": [
      {"measurement": "insecticidal activity (in words)", "setting": "[2]", "result": "not insecticidal"},
      {"measurement": "% KD at 24 h", "setting": "[2]; dust alone", "result": "(1.3% KD at 24 h)"}
    ]},
    {"compound": "OB(O)O", "note": "[Boric acid, tech., Boric acid]", "values": [
      {"measurement": "% of live in light on day 1", "setting": "[4]", "result": 13, "unit": "%"},
      {"measurement": "% of live in light on day 7", "setting": "[4]", "result": 100, "unit": "%"}
    ]},
    {"compound": "CCCCC/C(C=O)=C/c1ccccc1", "note": "[Amyl cinnamic aldehyde, 5%, Amyl cinnamic aldehyde]", "values": [
      {"measurement": "insecticidal activity (in words)", "setting": "[2]", "result": "much slower, about as active as diatomaceous earth"},
      {"measurement": "KT50", "setting": "[2]", "result": 9.4, "unit": "h"},
      {"measurement": "KT90", "setting": "[2]", "result": 15.5, "unit": "h"}
    ]},
    {"compound": "CC(=O)OCc1ccccc1", "note": "[Benzyl acetate]", "values": [
      {"measurement": "insecticidal activity (in words)", "setting": "[2]", "result": "most active"},
      {"measurement": "KT50", "setting": "[2]", "result": 0.7, "unit": "h"},
      {"measurement": "KT90", "setting": "[2]", "result": 1.0, "unit": "h"},
      {"measurement": "KT90, Hours", "setting": "[2]; listed as benzyl acetate", "result": "about one hour or so"}
    ]},
    {"compound": "OCCc1ccccc1", "note": "[Phenyl ethyl alcohol]", "values": [
      {"measurement": "insecticidal activity (in words)", "setting": "[2]", "result": "most active"},
      {"measurement": "KT50", "setting": "[2]", "result": 0.7, "unit": "h"},
      {"measurement": "KT90", "setting": "[2]", "result": 1.0, "unit": "h"},
      {"measurement": "KT90, Hours", "setting": "[2]; listed as phenyl ethyl alcohol", "result": "about one hour or so"}
    ]}
  ]
}
